Source: EP3335720A1, “C-DI-GMP BINDING PEPTIDES” (Universität Basel, priority 2016, dated 2018)
Square brackets hold non-standard residues; d marks the D form. Peptide text beside a SMILES is read from it.

target: c-di-GMP; assay: Binding affinity of peptides to c-di-GMP by isothermal titration calorimetry (ITC); settings: Table 3, peptides with amino acid substitution, 15°C, pH 8.0, read-out: Dissociation constant
Protocol: Binding affinities of peptides to c-di-GMP were measured using isothermal titration calorimetry (ITC) on a VP-ITC MicroCalorimeter (MicroCal, Northampton, MA, USA). Peptides, c-di-GMP and buffer (50 mM Tris-HCl, pH 8.0, 100 mM NaCl) were degassed for 15 min prior to filling into sample cell and syringe. All experiments were carried out at a temperature of 15°C. The data were evaluated using ITC Data Analysis in ORIGIN provided by the manufacturer.

Compound	Kd [nM]
Ac-DRRRFNSADYKGPRRRKLD-NH2 [compound 30]	250
Ac-DRARFNSADYKGPRRRKAD-NH2 [compound 15]	1510
Ac-DRRRANSADYKGPRRRKAD-NH2 [compound 17]	140

same assay, conditions: Table 4, deletion of single amino acid, 15°C, pH 8.0, read-out: Dissociation constant

Compound	Kd [nM]
Ac-DRRFNSADYKGPRRRKAD-NH2 [compound 32]	1040
Ac-DRRRFNSADYKPRRRKAD-NH2 [compound 38]	1950
Ac-DRRRFNSAYKGPRRRKAD-NH2 [compound 37]	440
Ac-DRRRFNADYKGPRRRKAD-NH2 [compound 35]	440
Ac-DRRRFSADYKGPRRRKAD-NH2 [compound 34]	1250
Ac-DRRRNSADYKGPRRRKAD-NH2 [compound 33]	1270
Ac-DRRRFNSDYKGPRRRKAD-NH2 [compound 36]	340

same assay, conditions: compared to the core sequence / peptide of SEQ ID NO: 12

Compound	binding affinity to c-di-GMP, in words
Ac-ARRRFNSADYKGPRRRKAD-NH2 [SEQ ID NO: 13, AC-ARRRFNSADYKGPRRRKAD-NH2]	significantly reduced binding affinities
Ac-DRRRFNSADYKAPRRRKAD-NH2 [SEQ ID NO: 24, AC-DRRRFNSADYKAPRRRKAD-NH2]	significantly reduced binding affinities
Ac-DARRFNSADYKGPRRRKAD-NH2 [SEQ ID NO: 14, AC-DARRFNSADYKGPRRRKAD-NH2]	significantly reduced binding affinities
Ac-DRRRFSADYKGPRRRKAD-NH2 [SEQ ID NO: 34, AC-DRRRFSADYKGPRRRKAD-NH2]	Affinity decreased further
Ac-DRARFNSADYKGPRRRKAD-NH2 [SEQ ID NO: 15, AC-DRARFNSADYKGPRRRKAD-NH2]	significantly reduced binding affinities
Ac-DRRRNSADYKGPRRRKAD-NH2 [SEQ ID NO: 33, AC-DRRRNSADYKGPRRRKAD-NH2]	Affinity decreased further
Ac-DRRFNSADYKGPRRRKAD-NH2 [SEQ ID NO: 32, AC-DRRFNSADYKGPRRRKAD-NH2]	Affinity decreased further
Ac-DRRRFNSAAYKGPRRRKAD-NH2 [SEQ ID NO: 21, AC-DRRRFNSAAYKGPRRRKAD-NH2]	does not significantly reduce binding affinity
Ac-DRRRFNSADYKGPRRRKLD-NH2 [SEQ ID NO: 30, AC-DRRRFNSADYKGPRRRKLD-NH2]	does not significantly reduce binding affinity
Ac-DRRRFNSADYKGPRARKAD-NH2 [SEQ ID NO: 27, AC-DRRRFNSADYKGPRARKAD-NH2]	significantly reduced binding affinities
Ac-DRRRFNSADYKGPARRKAD-NH2 [SEQ ID NO: 26, AC-DRRRFNSADYKGPARRKAD-NH2]	significantly reduced binding affinities
Ac-DRRAFNSADYKGPRRRKAD-NH2 [SEQ ID NO: 16, AC-DRRAFNSADYKGPRRRKAD-NH2]	sufficiently high to bind c-di-GMP
Ac-DRRRFNSLDYKGPRRRKAD-NH2 [SEQ ID NO: 20, AC-DRRRFNSLDYKGPRRRKAD-NH2]	does not significantly reduce binding affinity
Ac-DRRRFASADYKGPRRRKAD-NH2 [SEQ ID NO: 18, AC-DRRRFASADYKGPRRRKAD-NH2]	does not significantly reduce binding affinity
Ac-DRRRFNSADYKGARRRKAD-NH2 [SEQ ID NO: 25, AC-DRRRFNSADYKGARRRKAD-NH2]	sufficiently high to bind c-di-GMP
Ac-DRRRFNSADYKGPRRRKAA-NH2 [SEQ ID NO: 31, AC-DRRRFNSADYKGPRRRKAA-NH2]	significantly reduced binding affinities
Ac-DRRRFNSADYAGPRRRKAD-NH2 [SEQ ID NO: 23, AC-DRRRFNSADYAGPRRRKAD-NH2]	does not significantly reduce binding affinity
Ac-DRRRFNSADYKGPRRRAAD-NH2 [SEQ ID NO: 29, AC-DRRRFNSADYKGPRRRAAD-NH2]	does not significantly reduce binding affinity
Ac-DRRRFNSADAKGPRRRKAD-NH2 [SEQ ID NO: 22, AC-DRRRFNSADAKGPRRRKAD-NH2]	significantly reduced binding affinities
Ac-DRRRFNAADYKGPRRRKAD-NH2 [SEQ ID NO: 19, AC-DRRRFNAADYKGPRRRKAD-NH2]	does not significantly reduce binding affinity

same assay, conditions: single amino acid deletion

Compound	decrease of c-di-GMP binding affinity compared to the peptide of SEQ ID NO: 12
Ac-DRRRFNSAYKGPRRRKAD-NH2 [SEQ ID NO: 37, AC-DRRRFNSAYKGPRRRKAD-NH2]	2 to 3 fold
Ac-DRRRFNSDYKGPRRRKAD-NH2 [SEQ ID NO: 36, AC-DRRRFNSDYKGPRRRKAD-NH2]	2 to 3 fold
Ac-DRRRFNADYKGPRRRKAD-NH2 [SEQ ID NO: 35, AC-DRRRFNADYKGPRRRKAD-NH2]	2 to 3 fold
Ac-DRRRFNSADYKPRRRKAD-NH2 [SEQ ID NO: 38, AC-DRRRFNSADYKPRRRKAD-NH2]	about 12 fold

system: not listed separately; assay: in vitro; assay type: in vitro ADME, P. aeruginosa PAO1; settings: not given
Protocol: P. aeruginosa PAO1 lysate, which was used to test peptide stability, was prepared by the following procedure. 500 ml of cells grown overnight at 37°C were harvested by centrifugation at 5000 rpm, 10 min at 4°C. Pellets were resuspended in 60 ml PBS (Gibco) and centrifuged at 5000 rpm, 10 min at 4°C. Pellets were resuspended again in 20 ml PBS and centrifuged at 5000 rpm, 10 min at 4°C. Cells were disrupted using high-pressure cell disrupter (Stansted Fluid Power). Cell lysate was separated from cell debris by centrifugation at 14,000 rpm for 20 min at 4°C. Lysate was diluted 10 fold to yield a protein content of about 1 mg/ml. The lysate was used for all experiments described below.
The stability of peptides was tested against P. aeruginosa PAO1 cell lysate. About 1 to 3 µg of peptides were incubated with 5 µl P. aeruginosa PAO1 cell lysate or PBS (untreated controls) at 37°C. After 2 hours, 6 µl of 2x SDS sample buffer was added to the samples and heated to 95°C for 5 min. Samples were analyzed on 10-20% Mini-PROTEAN tris-tricine gels (BIO-RAD #4563115) according to manufacturer's recommended protocol. Band intensities were quantified using the program ImageJ (Schneider, C. A., Rasband, W. S. and Eliceiri, K. W. 2012. NIH Image to ImageJ: 25 years of image analysis. Nature methods. 9: 671-675).

Compound	Remaining peptide after 2 hours
C[C@H](NC(=O)[C@H](CO)NC(=O)[C@H](CC(N)=O)NC(=O)[C@H](Cc1ccccc1)NC(=O)[C@H](CCCNC(=N)N)NC(=O)[C@H](CCCNC(=N)N)NC(=O)[C@H](CCCNC(=N)N)NC(=O)[C@H](CC(=O)O)NC(=O)[C@H](N)CCCNC(=N)N)C(=O)N[C@@H](CC(=O)O)C(=O)N[C@@H](Cc1ccc(O)cc1)C(=O)N[C@@H](CCCCN)C(=O)NCC(=O)N1CCC[C@H]1C(=O)N[C@@H](CCCNC(=N)N)C(=O)N[C@@H](CCCNC(=N)N)C(=O)N[C@@H](CCCNC(=N)N)C(=O)N[C@@H](CCCCN)C(=O)N[C@@H](C)C(=O)N[C@@H](CC(=O)O)C(=O)N[C@H](C)C(N)=O [SEQ ID NO: 42, rDRRRFNSADYKGPRRRKADa-NH2] (H-[dR]DRRRFNSADYKGPRRRKAD[dA]-NH2)	significant improvement

same assay, conditions: cells or culture medium

Compound	remaining at 2 h [%]
Ac-DRRRFNSADYKGPRRRKLD-NH2 [compound 30]	51
Ac-DRARFNSADYKGPRRRKAD-NH2 [compound 15]	11
C[C@H](NC(=O)[C@H](CO)NC(=O)[C@H](CC(N)=O)NC(=O)[C@H](Cc1ccccc1)NC(=O)[C@H](CCCNC(=N)N)NC(=O)[C@H](CCCNC(=N)N)NC(=O)[C@H](CCCNC(=N)N)NC(=O)[C@H](N)CC(=O)O)C(=O)N[C@@H](CC(=O)O)C(=O)N[C@@H](Cc1ccc(O)cc1)C(=O)N[C@@H](CCCCN)C(=O)NCC(=O)N1CCC[C@H]1C(=O)N[C@@H](CCCNC(=N)N)C(=O)N[C@@H](CCCNC(=N)N)C(=O)N[C@@H](CCCNC(=N)N)C(=O)N[C@@H](CCCCN)C(=O)N[C@@H](C)C(=O)N[C@H](CC(=O)O)C(=O)O [compound 39] (H-[dD]RRRFNSADYKGPRRRKA[dD]-OH)	19
C[C@H](NC(=O)[C@H](CO)NC(=O)[C@H](CC(N)=O)NC(=O)[C@H](Cc1ccccc1)NC(=O)[C@H](CCCNC(=N)N)NC(=O)[C@H](CCCNC(=N)N)NC(=O)[C@H](CCCNC(=N)N)NC(=O)[C@H](CC(=O)O)NC(=O)[C@H](N)CCCNC(=N)N)C(=O)N[C@@H](CC(=O)O)C(=O)N[C@@H](Cc1ccc(O)cc1)C(=O)N[C@@H](CCCCN)C(=O)NCC(=O)N1CCC[C@H]1C(=O)N[C@@H](CCCNC(=N)N)C(=O)N[C@@H](CCCNC(=N)N)C(=O)N[C@@H](CCCNC(=N)N)C(=O)N[C@@H](CCCCN)C(=O)N[C@@H](C)C(=O)N[C@@H](CC(=O)O)C(=O)N[C@H](C)C(N)=O [compound 42] (H-[dR]DRRRFNSADYKGPRRRKAD[dA]-NH2)	38
C[C@H](NC(=O)[C@H](CO)NC(=O)[C@H](CC(N)=O)NC(=O)[C@H](Cc1ccccc1)NC(=O)[C@H](CCCNC(=N)N)NC(=O)[C@H](CCCNC(=N)N)NC(=O)[C@H](CCCNC(=N)N)NC(=O)[C@H](CC(=O)O)NC(=O)[C@H](N)CCCNC(=N)N)C(=O)N[C@@H](CC(=O)O)C(=O)N[C@@H](Cc1ccc(O)cc1)C(=O)N[C@@H](CCCCN)C(=O)NCC(=O)N1CCC[C@H]1C(=O)N[C@@H](CCCNC(=N)N)C(=O)N[C@@H](CCCNC(=N)N)C(=O)N[C@@H](CCCNC(=N)N)C(=O)N[C@@H](CCCCN)C(=O)N[C@@H](C)C(=O)N[C@@H](CC(=O)O)C(=O)N[C@H](C)C(=O)O [compound 40] (H-[dR]DRRRFNSADYKGPRRRKAD[dA]-OH)	15
CC(=O)N[C@H](CCCNC(=N)N)C(=O)N[C@@H](CC(=O)O)C(=O)N[C@@H](CCCNC(=N)N)C(=O)N[C@@H](CCCNC(=N)N)C(=O)N[C@@H](CCCNC(=N)N)C(=O)N[C@@H](Cc1ccccc1)C(=O)N[C@@H](CC(N)=O)C(=O)N[C@@H](CO)C(=O)N[C@@H](C)C(=O)N[C@@H](CC(=O)O)C(=O)N[C@@H](Cc1ccc(O)cc1)C(=O)N[C@@H](CCCCN)C(=O)NCC(=O)N1CCC[C@H]1C(=O)N[C@@H](CCCNC(=N)N)C(=O)N[C@@H](CCCNC(=N)N)C(=O)N[C@@H](CCCNC(=N)N)C(=O)N[C@@H](CCCCN)C(=O)N[C@@H](C)C(=O)N[C@@H](CC(=O)O)C(=O)N[C@H](C)C(N)=O [compound 41] (Ac-[dR]DRRRFNSADYKGPRRRKAD[dA]-NH2)	19
